Measurements taken from patent US5859019A, “Methods for protecting against cardiac ischemia by administering adenosine A2a receptor antagonists” (priority 1997, dated 1999).

Columns and labels:
[1] = tested on: rat brain A1 and A2 receptors; conditions: rat brain adenosine receptors, radioligand binding; cited from earlier work
[2] = tested on: ventricular cells cultured from chick embryos; assay: Hypoxia-induced injury / preconditioning of cultured ventricular cells (% cells killed, CK released); assay type: cell-based; conditions: for Ability to replace preconditioning hypoxia (protection against injury by ninety-minute hypoxia; % cells killed, CK released): agent given for 5 min in place of preconditioning hypoxia, before 90-min hypoxia, adenosine 10 μM, R-PIA 10 μM; for Ability to replace preconditioning hypoxia (protection against injury by ninety-minute hypoxia; % cells killed, CK released) / Effect on protection by preconditioning hypoxia (% cells killed, CK released): CGS21680 1 μM; for Effect on protection by preconditioning hypoxia (% cells killed, CK released): agent present during five-minute preconditioning hypoxia, CSC 1 μM, 8-SPT 100 μM, isoproterenol 0.3 μM, forskolin 1 μM, BayK 8644 0.1 μM; for EC (maximal effect): Gallus gallus, agonist replacing preconditioning hypoxia, read-out: Concentration giving maximal preconditioning effect
Procedure: Ventricular cells were cultured from chick embryos 14 days in ovo, according to a previously described procedure (20, 27). Cells were plated at a density of 400,000 cells per ml and cultivated in a humidified 5% CO2 -95% air mixture at 37° C. […] For preconditioning studies, the medium was changed to a HEPES-buffered medium containing (mM) 139 NaCl, 4.7 KCl, 0.5 MgCl2, 0.9 CaCl2, 5 HEPES (N-2-hydroxyethylpiperazine-N'-2-ethanesulfonic acid) and 2% fetal bovine serum, pH=7.4, 37° C. before exposing cells to the various conditions at 37° C. Control cells were maintained in the HEPES-buffered media under room air. Hypoxia was produced by placing the cells in a hypoxic incubator (NuAire) where O2 was replaced by N2. The % O2 was monitored by both an oxygen Fyrite Gas Analyzer (Bacharach) and an oxygen analyzer (Model OX630, Engineered Systems & Designs). Preconditioning was induced by exposing the cells to five minutes of hypoxia, termed preconditioning hypoxia, prior to a second ninety-minute hypoxia. Cells not subjected to preconditioning were exposed to ninety minutes of hypoxia only (nonpreconditioned cells). The extracellular pH was similarly maintained at 7.4 by HEPES in both preconditioned and nonpreconditioned cells. Determination of basal level of cell injury was made after parallel incubation of control cells under normal % O2. For preconditioned and nonpreconditioned cells, determination of cell injury was made at the end of the ninety-minute hypoxic period.
The extent of hypoxia-induced injury to the ventricular cell was quantitatively determined by the percentages of cells killed and by the amount of creatine kinase (CK) released into the media. To quantitate the % cells killed, cells were exposed to a trypsin-EDTA Hanks' balanced salt solution for 10 minutes for detachment after the various treatment, followed by centrifugation (300 × g for 10 minutes) and resuspension in culture media for counting in a hemocytometer. Only live cells sedimented and the cells counted represented those that survived (29). None of the sedimented cells subsequently counted included trypan blue. […] There was no protein or CK in the culture media following a second 300 × g centrifugation of resuspended cells previously treated with trypsin-EDTA. […] In contrast, the trypsin-EDTA media from cells exposed to 90 minutes of hypoxia contained substantial amount of proteins (0.15±0.03 mg, n=9) and CK activity (16±3 unit/mg protein, n=8). […] Because trypsin may cause further proteolysis of proteins and CK, the amount of protein and CK retained by the damaged cells in the trypsin-EDTA media may not accurately reflect those associated with the damaged cells. In support of the notion that exposure to 90 minutes of hypoxia caused significant cell injury and loss of membrane integrity, there was also marked release of LDH (hypoxia-exposed cells, 35.5±2.7, unit/mg, n=8, ±S.E. vs. control cells, 6.1±0.4 unit/mg, n=8) and proteins (hypoxia-exposed cells, 0.15±0.03 mg, n=8 vs. control cells, 0.034±0.01 mg, n=8) from the cells incubated under prolonged hypoxia. Thus, the cell viability assay separated out the hypoxia-damaged from the control normoxia-exposed cells. […] The amount of CK was measured as enzyme activity (unit/mg), and increases in CK activity above the control level were determined. The percentage of cells killed was calculated as the number of cells obtained from the control group (representing cells not subjected to any hypoxia or drug treatment) minus the number of cells from the treatment group divided by number of cells in control group multiplied by 100%.
To investigate the role of adenosine in mediating the preconditioning effect, the ventricular cells, instead of being exposed to the brief hypoxia, were incubated with adenosine (10 μM) for 5 minutes prior to the ninety minute hypoxia. In adenosine-treated cells, media were replaced with adenosine-free media for ten minutes prior to a ninety-minute hypoxic exposure. […]

[3] = tested on: ventricular cells cultured from chick embryos; assay: 45Ca uptake in cultured ventricular cells; assay type: cell-based
Procedure: Determination of ^45 Ca uptake was made according to a modification of previously described method (20). Cultures were incubated with L-(3, 4, 5-^3 H, N)-leucine (152.2 Ci/mmol) for a 24 hour prior to ^45 Ca uptake. [^3 H] leucine incorporated into the cellular protein allowed normalization of ^45 Ca content to mg cell protein. After incubation with ^45 Ca-containing medium, cells were then washed free of ^45 Ca and solubilized for 2 hours with 1% sodium dodecyl sulfate and 10 mM sodium borate and the levels of ^3 H and ^45 Ca were determined. For all data comparing the effect of different agents on ^45 Ca uptake, one-way ANOVA analysis followed by group comparison with t-test was carried out at each time point of the ^45 Ca uptake. Cyclic AMP level was determined according to a previously described radioimmunoassay (27).

Compound	A1/A2 ratio (A2a receptor selectivity ratio) [1]	other results
COc1ccccc1/C=C/c1nc2c(c(=O)n(C)c(=O)n2C)n1C [17b]	18	–
COc1cccc(/C=C/c2nc3c(c(=O)n(C)c(=O)n3C)n2C)c1 [19b]	64	–
Cn1c(=O)c2c(nc(/C=C/c3cccc(C(F)(F)F)c3)n2C)n(C)c1=O [20b]	25	–
Cn1c(=O)c2c(nc(/C=C/c3cccc([N+](=O)[O-])c3)n2C)n(C)c1=O [21b]	11	–
Cn1c(=O)c2c(nc(/C=C/c3cccc(N)c3)n2C)n(C)c1=O [22b]	30	–
Cn1c(=O)c2c(nc(/C=C/c3cccc(F)c3)n2C)n(C)c1=O [27b]	190	–
COc1ccc(/C=C/c2nc3c(c(=O)n(C)c(=O)n3C)n2C)cc1 [29b]	44	–
COc1ccc(/C=C/c2nc3c(c(=O)n(C)c(=O)n3C)n2C)cc1OC [32b]	70	–
COc1cc(/C=C/c2nc3c([nH]2)c(=O)n(C)c(=O)n3C)cc(OC)c1 [33a]	25	–
COc1cc(/C=C/c2nc3c(c(=O)n(C)c(=O)n3C)n2C)cc(OC)c1 [33b]	> 200	–
Cn1c(=O)c2c(nc(/C=C/c3cc(F)cc(F)c3)n2C)n(C)c1=O [34b]	230	–
COc1ccc(/C=C/c2nc3c(c(=O)n(C)c(=O)n3C)n2C)c(OC)c1OC [43b]	34	–
COc1cc(/C=C/c2nc3c(c(=O)n(C)c(=O)n3C)n2C)cc(OC)c1OC [44b]	70	–
CCCn1c(=O)c2c(nc(/C=C/c3cc(OC)cc(OC)c3)n2C)n(CCC)c1=O [53b]	110	–
Nc1ncnc2c1ncn2[C@@H]1O[C@H](CO)[C@@H](O)[C@H]1O [Adenosine, adenosine]	–	Ability to replace preconditioning hypoxia (protection against injury by ninety-minute hypoxia; % cells killed, CK released) [2]: significant attenuation of the injury
COC(=O)C1=C(C)NC(C)=C([N+](=O)[O-])C1c1ccccc1C(F)(F)F (stereo not shown) [BayK 8644]	–	Ability to replace preconditioning hypoxia (protection against injury by ninety-minute hypoxia; % cells killed, CK released) [2]: Neither isoproterenol, forskolin nor BayK8644 had any effect on the level of protection; Effect on protection by preconditioning hypoxia (% cells killed, CK released) [2]: caused an increase in % cells killed and amount of CK released; Calcium influx into the cultured cells ([3]; isoproterenol 0.3 μM, forskolin 1 μM, BayK 8644 0.1 μM, data not shown): induced increased calcium influx
CNC(=O)[C@H]1O[C@@H](n2cnc3c(NCc4cccc(I)c4)nc(Cl)nc32)[C@H](O)[C@@H]1O [C1-IB-MECA, 2-chloro-N^6-(3-iodobenzyl)adenosine-5'-N-methyluronamide]	–	EC (maximal effect) [2]: 0.1 µM; Ability to replace preconditioning hypoxia (protection against injury by ninety-minute hypoxia; % cells killed, CK released) [2]: can replace preconditioning hypoxia and simulate preconditioning

Compound	A1/A2 ratio (A2a receptor selectivity ratio) [1]	other results
OC[C@H]1O[C@@H](n2cnc3c(NC4CCCC4)nc(Cl)nc32)[C@H](O)[C@@H]1O [CCPA]	–	EC (maximal effect) [2]: 0.1 µM; Ability to replace preconditioning hypoxia (protection against injury by ninety-minute hypoxia; % cells killed, CK released) [2]: can replace preconditioning hypoxia and simulate preconditioning
CCNC(=O)[C@H]1O[C@@H](n2cnc3c(N)nc(NCCc4ccc(CCC(=O)O)cc4)nc32)[C@H](O)[C@@H]1O [CGS21680, 2-[4-(2-carboxyethyl)phenylethylamino]-5'-N-ethylcarboxiamidoadenosine]	–	Ability to replace preconditioning hypoxia (protection against injury by ninety-minute hypoxia; % cells killed, CK released) [2]: could not; Effect on protection by preconditioning hypoxia (% cells killed, CK released) [2]: attenuated the protection; 45Ca uptake ([3]; after 90-second exposure to 45Ca-containing media, CGS21680 1 μM, control 4.2±0.1, ±S.D.): 5.8 ± 0.2 nmol/mg; 45Ca uptake, CGS21680 plus nifedipine ([3]; after 90-second exposure to 45Ca, CGS21680 1 μM plus nifedipine 1 μM, control 4.2±0.1, ±S.D.): 4.4 ± 0.1 nmol/mg
C[C@H](Cc1ccccc1)Nc1ncnc2c1ncn2[C@@H]1O[C@H](CO)[C@@H](O)[C@H]1O [R-PIA, N^6 -R-phenyl-2-propyl adenosine]	–	Ability to replace preconditioning hypoxia (protection against injury by ninety-minute hypoxia; % cells killed, CK released) [2]: could substitute for preconditioning hypoxia and induce preconditioning
CC(=O)Nc1cccc(/C=C/c2nc3c(c(=O)n(C)c(=O)n3C)n2C)c1 [compound 23]	240	–
Cn1c(=O)c2c(nc(/C=C/c3cccc(NC(=O)CCC(=O)O)c3)n2C)n(C)c1=O [compound 24]	250	–
Cn1c(=O)c2c(nc(/C=C/c3cccc(NC(=O)OC(C)(C)C)c3)n2C)n(C)c1=O [compound 25]	30	–
Cn1c(=O)c2c(nc(/C=C/c3cccc(N(C(=O)OC(C)(C)C)C(=O)OC(C)(C)C)c3)n2C)n(C)c1=O [compound 26]	15	–
Cn1c(=O)c2c(nc(/C=C/c3cccc(Cl)c3)n2C)n(C)c1=O [compound 28, 8-(3-chlorostyryl)caffeine]	–	Effect on R-PIA-induced preconditioning (% cells killed, CK released) ([2]; CSC present during 5-min treatment with 10 μM R-PIA, P<0.01): enhanced the preconditioning effect; Ability to replace preconditioning hypoxia (protection against injury by ninety-minute hypoxia; % cells killed, CK released) [2]: had no effect on the extent of injury; Effect on protection by preconditioning hypoxia (% cells killed, CK released) [2]: increased protection
COc1cc(/C=C/c2nc3c(c(=O)n(C)c(=O)n3C)n2C)cc(OC)c1O [compound 35]	19	–
COc1cc(/C=C/c2nc3c(c(=O)n(C)c(=O)n3C)n2C)cc(OC)c1OC(C)=O [compound 36]	93	–
COc1cc(/C=C/c2nc3c(c(=O)n(C)c(=O)n3C)n2C)cc(OC)c1OCc1ccccc1 [compound 37]	30	–
COc1cc(/C=C/c2nc3c(c(=O)n(C)c(=O)n3C)n2C)cc(OC)c1OCCCCN [compound 38]	36	–
COc1cc(/C=C/c2nc3c(c(=O)n(C)c(=O)n3C)n2C)cc(OC)c1OCCCCNC(=O)OC(C)(C)C [compound 39]	42	–
COc1cc(/C=C/c2nc3c(c(=O)n(C)c(=O)n3C)n2C)cc(OC)c1OC/C=C/CN [compound 40]	28	–
COc1cc(/C=C/c2nc3c(c(=O)n(C)c(=O)n3C)n2C)cc(OC)c1OC/C=C/CNC(C)=O [compound 41]	> 50	–
COc1cc(/C=C/c2nc3c(c(=O)n(C)c(=O)n3C)n2C)cc(OC)c1OC/C=C/CNC(=O)OC(C)(C)C [compound 42]	> 40	–
C=CCn1c(=O)c2c(nc(/C=C/c3cc(OC)c(OC)c(OC)c3)n2C)n(CC=C)c1=O [compound 46]	13	–
